Experimental data: PubChem BioAssay (NCI)
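Five concentrations, 48 hours, 96-well plates. The concentration for full growth arrest is given as TGI.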

Assays:
Assay in all cases: NCI tumour cell line growth inhibition, 48 h
A498 renal = test system: A498 renal
A549 NSCLC = test system: A549 NSCLC
HCT-15 colon = test system: HCT-15 colon
IGROV1 ovarian = test system: IGROV1 ovarian
786-0 renal = test system: 786-0 renal
UO-31 renal = test system: UO-31 renal
SN12C renal = test system: SN12C renal
CCRF-CEM leukemia = test system: CCRF-CEM leukemia
HT29 colon = test system: HT29 colon
SF-295 CNS = test system: SF-295 CNS
MOLT-4 leukemia = test system: MOLT-4 leukemia
SNB-75 CNS = test system: SNB-75 CNS
NCI-H522 lung = test system: NCI-H522 lung
SNB-78 CNS = test system: SNB-78 CNS
HOP-18 NSCLC = test system: HOP-18 NSCLC
U251 CNS = test system: U251 CNS
KM12 colon = test system: KM12 colon
M14 melanoma = test system: M14 melanoma
NCI-H23 lung = test system: NCI-H23 lung
UACC-257 melanoma = test system: UACC-257 melanoma
UACC-62 melanoma = test system: UACC-62 melanoma
SK-OV-3 ovarian = test system: SK-OV-3 ovarian
HOP-92 NSCLC = test system: HOP-92 NSCLC
RXF 393 renal = test system: RXF 393 renal
SW-620 colon = test system: SW-620 colon
NCI-H226 lung = test system: NCI-H226 lung
EKVX NSCLC = test system: EKVX NSCLC
DMS 114 small cell lung = test system: DMS 114 small cell lung
SF-539 CNS = test system: SF-539 CNS
ACHN renal = test system: ACHN renal
CAKI-1 renal = test system: CAKI-1 renal
SK-MEL-28 melanoma = test system: SK-MEL-28 melanoma
OVCAR-3 ovarian = test system: OVCAR-3 ovarian
OVCAR-8 ovarian = test system: OVCAR-8 ovarian
LOX IMVI melanoma = test system: LOX IMVI melanoma
RPMI-8226 leukemia = test system: RPMI-8226 leukemia
TK-10 renal = test system: TK-10 renal
K-562 leukemia = test system: K-562 leukemia
DLD-1 colon = test system: DLD-1 colon
LXFL 529 NSCLC = test system: LXFL 529 NSCLC
SNB-19 CNS = test system: SNB-19 CNS
COLO 205 colon = test system: COLO 205 colon
M19-MEL melanoma = test system: M19-MEL melanoma
MALME-3M melanoma = test system: MALME-3M melanoma
SK-MEL-5 melanoma = test system: SK-MEL-5 melanoma
HCC-2998 colon = test system: HCC-2998 colon
HCT-116 colon = test system: HCT-116 colon
SF-268 CNS = test system: SF-268 CNS
XF 498 CNS = test system: XF 498 CNS
KM20L2 colon = test system: KM20L2 colon
DMS 273 small cell lung = test system: DMS 273 small cell lung
SK-MEL-2 melanoma = test system: SK-MEL-2 melanoma
HOP-62 NSCLC = test system: HOP-62 NSCLC
HL-60(TB) leukemia = test system: HL-60(TB) leukemia
NCI-H460 lung = test system: NCI-H460 lung
OVCAR-5 ovarian = test system: OVCAR-5 ovarian
OVCAR-4 ovarian = test system: OVCAR-4 ovarian
SR leukemia = test system: SR leukemia

Measured: TGI

CC1=CC(/C=C(\C)CCCc2ccoc2)C2(OC(=O)C(C)=C2O)[C@H]2C1CC[C@@H]2C (stereo partly drawn)
57.1 µM: MALME-3M melanoma
60.9 µM: M14 melanoma
59.6 µM: RPMI-8226 leukemia
58.6 µM: CCRF-CEM leukemia
54.6 µM: NCI-H226 lung
42.6 µM: SNB-19 CNS
49.2 µM: A498 renal
39.8 µM: HCT-15 colon
47 µM: COLO 205 colon
67.1 µM: U251 CNS
82.6 µM: HOP-18 NSCLC
74.2 µM: HCC-2998 colon
36.8 µM: SF-539 CNS
41 µM: HOP-92 NSCLC
58.8 µM: LXFL 529 NSCLC
41.3 µM: MOLT-4 leukemia
51 µM: OVCAR-3 ovarian
60.5 µM: RXF 393 renal
31.2 µM: NCI-H522 lung
76.4 µM: ACHN renal
38.1 µM: HCT-116 colon
69 µM: SK-OV-3 ovarian
90.6 µM: M19-MEL melanoma
59.3 µM: LOX IMVI melanoma
85.2 µM: SNB-78 CNS
67.2 µM: NCI-H23 lung
31 µM: UO-31 renal
32.2 µM: 786-0 renal
72.2 µM: DMS 114 small cell lung
56.2 µM: SF-295 CNS
37.5 µM: UACC-62 melanoma
60.8 µM: SN12C renal
46.4 µM: SK-MEL-5 melanoma
not listed: SF-268 CNS | XF 498 CNS | KM20L2 colon | DMS 273 small cell lung | SK-MEL-2 melanoma | HOP-62 NSCLC | HL-60(TB) leukemia | NCI-H460 lung | OVCAR-5 ovarian | OVCAR-4 ovarian | SR leukemia
> 100 µM: all other assays above

CCCCN(CCCC)CC(C(=O)Nc1ccc([N+](=O)[O-])cc1[N+](=O)[O-])/C(C)=N\NC(=S)NN (stereo not drawn)
65.4 µM: NCI-H522 lung
not listed: HCT-15 colon | SN12C renal | SNB-78 CNS | HOP-18 NSCLC | CAKI-1 renal | SNB-19 CNS | OVCAR-4 ovarian | SR leukemia
> 100 µM: all other assays above

S=C(N/N=C/c1ccco1)NC12CC3CC(CC(C3)C1)C2
33.4 µM: COLO 205 colon
not listed: RPMI-8226 leukemia | HL-60(TB) leukemia | SR leukemia
> 100 µM: all other assays above

O=[n+]1c2c(n([O-])c3ccccc31)CCCCCCCCCC2
61.8 µM: NCI-H226 lung
not listed: A498 renal | HOP-18 NSCLC | RXF 393 renal | DMS 114 small cell lung | OVCAR-8 ovarian | COLO 205 colon | SK-MEL-5 melanoma | HCC-2998 colon | HOP-62 NSCLC | NCI-H460 lung | OVCAR-5 ovarian | OVCAR-4 ovarian
> 100 µM: all other assays above
